From patent US5028730A, “Antihypercholesterolemic nitrile compounds” (Bristol-Myers Company, priority 1990, dated 1991)

Target: T1, microsomal form of rat liver HMG-CoA reductase (Rattus norvegicus, UniProt P51639)
T1 construct: from tissue; host or cells: rat liver microsomes
T1 sequence (P51639 1-887): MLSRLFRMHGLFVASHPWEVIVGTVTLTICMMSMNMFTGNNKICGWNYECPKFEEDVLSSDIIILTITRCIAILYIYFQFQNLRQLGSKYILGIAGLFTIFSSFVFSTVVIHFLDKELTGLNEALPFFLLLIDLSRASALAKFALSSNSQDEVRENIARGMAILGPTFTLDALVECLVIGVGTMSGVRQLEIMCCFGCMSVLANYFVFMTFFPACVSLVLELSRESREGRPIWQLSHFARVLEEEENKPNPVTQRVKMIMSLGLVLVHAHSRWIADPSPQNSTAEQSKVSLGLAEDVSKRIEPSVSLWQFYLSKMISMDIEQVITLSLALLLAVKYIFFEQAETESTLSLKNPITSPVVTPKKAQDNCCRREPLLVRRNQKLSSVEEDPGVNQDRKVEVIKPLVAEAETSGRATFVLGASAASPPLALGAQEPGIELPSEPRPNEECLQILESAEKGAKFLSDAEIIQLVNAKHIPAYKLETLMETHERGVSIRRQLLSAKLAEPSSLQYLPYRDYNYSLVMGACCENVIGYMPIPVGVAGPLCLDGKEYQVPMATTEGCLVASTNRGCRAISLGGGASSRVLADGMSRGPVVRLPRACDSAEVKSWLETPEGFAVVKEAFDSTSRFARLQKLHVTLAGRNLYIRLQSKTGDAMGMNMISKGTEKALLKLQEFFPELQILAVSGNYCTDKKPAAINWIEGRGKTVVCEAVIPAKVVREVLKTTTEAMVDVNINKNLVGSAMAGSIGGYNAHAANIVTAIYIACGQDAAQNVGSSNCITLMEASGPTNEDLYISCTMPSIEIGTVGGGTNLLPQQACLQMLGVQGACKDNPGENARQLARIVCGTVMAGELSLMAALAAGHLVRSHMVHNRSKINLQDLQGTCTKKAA
Test: In Vitro Inhibition of Microsomal HMG-CoA Reductase
Format: biochemical
Conditions: 50 percent inhibitory concentration, rat liver microsomes, [3-14C]-HMG-CoA 0.33 mM, NADPH 3.0 mM, pH 7.2, at least 4 dilutions in duplicate
Description: The intact, fully activated microsomal form of rat liver HMG-CoA reductase (subunit MW ca 100,000 daltons) was prepared as described by Parker, et al., Biochem. Biophys. Res. Commun., 125, 629-635 (1984), and used as the source of enzyme for assays. HMG-CoA reductase activity was determined essentially by the method of Shapiro, et al., Biochem. Biophys. Acta., 370, 369-377 (1974), with modifications as described by Ingebritsen and Gibson, Meth. Enzymol, 71, 486-497 (1981) with the exception that the internal standard ^3 H-mevalonolactone is added after termination of the assay. […]
To measure reductase inhibition, test compounds dissolved in water or dimethylsulfoxide and diluted in buffer A (50 mM imidazole-HCl, 250 mM NaCl, 1 mM EDTA, 1 mM EGTA, 5 mM DTT, 20 μM leupeptin, pH=7.2) were incubated with aliquots of microsomes (80-160 μg protein in buffer A) followed by addition of d,1-[3-^14 C]-HMG-CoA (0.33 mM, 2.0 dpm/picomole) and NADPH (3.0 mM). The 50 percent inhibitory concentration (IC50) for each compound in Table 1 was calculated from the linear regression line of the percent decrease (from control) in enzyme activity vs. log concentration of inhibitor, determined using at least 4 dilutions of each test compound assayed in duplicate.

IC50 [µM] | SMILES
8 | N#CC(/C=C/[C@@H](O)C[C@@H](O)CC(=O)O)=C(c1ccc(F)cc1)c1ccc(F)cc1 (relative stereo) [Example 7, Sodium (±)-(E)-erythro-8-cyano-9,9-bis(4-fluorophenyl)-3,5-dihydroxy-6,8-nonadienoate]
26 | N#CC(/C=C/[C@H]1C[C@H](O)CC(=O)O1)=C(c1ccc(F)cc1)c1ccc(F)cc1 (relative stereo) [Example 8, Trans-(E)-2-[bis(4-fluorophenyl)methylene]-4-(tetrahydro-4-hydroxy-6-oxo-2H-pyran-2-yl)-3-butenenitrile]
